Data: patent US11746124B2, “Chemoselective thiol-conjugation with alkene or alkyne-phosphonamidates” (FORSCHUNGSVERBUND BERLIN E.V., priority 2016, dated 2023)

Columns and labels:
[1] = Second order rate constant of glutathione addition to EDANS phosphonamidate, fluorescence HPLC; details: 0.1 mM amidate, 0.1 mM glutathione, 50 mM NH4HCO3, 1 mM EDTA, pH 8.5, 1% DMF
Experimental: To study the kinetics of the thiol addition to alkyne-phosphonamidates at low concentrations, a fluorescent EDANS-based phosphonamidate was synthesized as described in chapter 1.1. Addition of glutathione as a model substrate was probed over time by fluorescence HPLC. Peak integration and normalization to unconjugated EDANS as an internal standard was applied to determine the second order rate constant of the reaction. A second order rate constant of 37.32±0.41 I/mol*s was measured.
Glutathione addition to the EDANS-phosphonamidate was conducted at a final concentration of 0.1 mM amidate, 0.1 mM glutathione and 0.02 mM EDANS as an internal standard in 50 mM NH4HCO3-buffer containing 1 mM EDTA at pH 8.5 with 1% DMF. 2.5 μl of a 20 mM stock solution of EDANS-phosphonamidate in DMF was premixed with 488 μl buffer and 5 μl of a 2 mM stock solution of EDANS in a 1:1 mixture of DMF and buffer. The reaction was started by the addition of 5 μl of a 10 mM solution of glutathione in buffer. 10 μl samples were drawn at 0, 15, 30, 60, 120, 240 and 480 minutes and acidified with 190 μl 10 mM NaOAc-Buffer (pH 5.0) and subjected to fluorescence HPLC analysis.

[2] = Stability of a vinyl phosphonamidate to different pHs by 31P-NMR in aqueous buffers; assay type: physicochemical; details: room temperature
Excerpt: In a first experiment, Ethyl-N-phenyl-P-vinyl-phosphonamidate was chosen to measure stability.

[3] = Hydrolytic decay of the GSH-phosphonamidate conjugate in aqueous buffer, 31P NMR over 24 hours; assay type: physicochemical
Experimental: The conjugate could be isolated by semipreparative HPLC under basic conditions as a diastereomeric mixture in a yield of 61%. Having reasonable quantities of this water soluble phosphonamidate-conjugate in hand, studies could be performed in order to determine the hydrolytic properties of the phosphorus-nitrogen bond. For these studies a […] in aqeuous buffer was prepared and the hydrolysis of the phosphonamidate was characterized by monitoring the decay of the conjugate against the standard by means of ^31P NMR over 24 hours.

[4] = Rate of glutathione addition to ethyl-N-phenyl alkynyl phosphonamidate, HPLC-UV; details: reaction with glutathione, after 15 min at pH 8.5
Experimental: The rate of the reaction was determined by HPLC. Glutathione was added to a solution of ethyl-N-phenyl alkynyl phosphonamidate in aqueous buffer at slightly basic pH. The reaction was stopped after several time points by the addition of an acidic buffer and analyzed by HPLC-UV, referring to inosine as an internal standard. FIG. 2 refers to the consumption of ethyl-N-phenyl alkynyl phosphonamidate in the reaction with glutathione at pH 8.5. HPLC UV traces were taken at different time points. Experiment was performed in triplicate.

C#CP(=O)(Nc1ccc(C(=O)NCCNc2cccc3c(S(=O)(=O)O)cccc23)cc1)OCC (stereo not drawn) [EDANS-based phosphonamidate, 5-((2-(O-Ethyl-P-ethynyl-phosphonamidato-N-benzoyl)ethyl)amino)naphthalene-1-sulfonic acid]
second order rate constant of the thiol addition [1]: 37.32±0.41 I/mol*s

C=CP(=O)(Nc1ccccc1)OCC (stereo not drawn) [Ethyl-N-phenyl-P-vinyl-phosphonamidate]
stability to different pHs over time ([2]; aqueous buffers): stable over a broad pH range
stability under strong acidic conditions ([2]; strong acidic conditions): P—N-bond cleavage occurred

CCOP(=O)(/C=C\SC[C@H](NC(=O)CC[C@H](N)C(=O)O)C(=O)NCC(=O)O)Nc1ccccc1 (stereo partly drawn) [GSH-phosphonamidate conjugate, (Ethyl-N-phenyl-P-ethenyl-phosphonamidate)-S-glutathion conjugate]
hydrolytic decay of the conjugate ([3]; slight acidic conditions, 150 mM NH4OAc-buffer, pH 4.76): stable over the duration of the measurement
hydrolytic decay of the conjugate ([3]; strong acidic conditions, 1 M HCL, pH 0.36): rapid decomposition

C#CP(=O)(Nc1ccccc1)OCC (stereo not drawn) [alkynyl phosphonamidate, Ethyl-N-phenyl-P-ethynyl-phosphonamidate]
conversion of the alkynyl phosphonamidate starting material [4]: more than 95%
